Results as given in patent publication US20050192289A1, “Novel cinnamic amides” (Active Biotech AB, priority 2004, published 2005).
Where a name gives a salt, the structure may show the parent alone.

Columns and labels:
CCR1 receptor = target: T1, CCR1 receptor (Homo sapiens, UniProt P32246); assay: In vitro Ca2+-flux assay on human monocytes (THP-1 cells stimulated with MIP-1α); type: cell-based; conditions: block of MIP-1α mediated Ca2+ mobilisation in THP-1 cells; Fluo-4
T1 construct: host or cells: THP-1
T1 sequence (P32246 1-355): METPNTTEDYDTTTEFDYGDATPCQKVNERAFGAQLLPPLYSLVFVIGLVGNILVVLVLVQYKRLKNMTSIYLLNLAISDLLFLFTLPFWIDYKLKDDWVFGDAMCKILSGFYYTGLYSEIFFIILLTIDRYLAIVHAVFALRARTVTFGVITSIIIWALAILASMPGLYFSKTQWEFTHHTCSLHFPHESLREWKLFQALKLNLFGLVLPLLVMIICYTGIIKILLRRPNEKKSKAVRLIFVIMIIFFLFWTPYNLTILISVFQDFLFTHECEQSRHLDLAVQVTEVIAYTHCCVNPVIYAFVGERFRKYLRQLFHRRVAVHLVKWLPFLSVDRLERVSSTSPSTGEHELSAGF
Protocol: The binding of Mip-1α at the CCR1 receptor leads to an increase of intracellular calcium levels. The ability of the compounds of the invention to block this biologic response of the CCR1 receptor is determined in the Ca^2+-flux assay.
In vitro Ca^2+-Flux Assay on Human Monocytes
• 1. Cell Culture: • a) THP-1 (ATCC Cat# TIB202) • b) Tissue culture medium: RPMI 1640 with Ultraglutamine 1 supplemented with 10% (v/v) foetal calf serum. This medium is hereinafter referred to as “growth medium”. • 2. Assay buffer: HMSS (Hanks' balanced salts solution), 20 mM HEPES, 1 mM CaCl2, 1 mM MgCl2, 2.5 mM Probenecid, pH 7.4. • 3. Fluo-4AM (Molecular Probes Cat # F14201) • 4. Pluronic® F-127 (Molecular Probes Cat # P-6867) • 5. The compounds of the invention were dissolved in DMSO. A serial dilution was made and nine concentrations of each compound were screened to generate a dose curve from which the IC50 value was determined. • 6. MIP-1α (Peprotech EC Ltd Cat # 300-08) • 7. Victor^2 1420 (Perkin Elmer) • 8. Microlite™ ^2+ (Dynex Cat # 7572) Assay Procedure:
THP-1 cells were grown in T-75 cm^2 flasks in growth medium at 37° C. in 5% CO2. The cells were harvested by centrifugation and resuspended in assay buffer. The cells were then loaded with 5 μM Fluo-4 and 0.02% pluronic acid (final concentrations) at 37° C. in 5% CO2 for 30 min. The excess dye was removed by washing with assay buffer. The cells were resuspended and 10^5 cells/well were added in a Microlite plate containing compounds and then incubated for 15 minutes at 37° C. in 5% CO2. The cells were then stimulated with MIP-1α and changes in intracellular free Ca^2+ concentration were measured with a Victor^2.

[1] = target: T2, cloned human CCR1 Chemokine receptor (Homo sapiens, UniProt P32246); assay: In vitro competitive affinity binding assay (displacement of 125I-MIP-1α); conditions: displacement of 125I-MIP-1α from cloned human CCR1 expressed in CHO cells, coated on FlashPlate; 1 hour, ambient temperature
T2 construct: purchased Perkin Elmer 6120525; host or cells: CHO cells
T2 sequence (P32246 1-355): T1 sequence (P32246 1-355)
Text: In the competitive affinity binding assay, the binding affinity of the compounds for the CCR1 receptor can be determined by measuring their ability to displace ^125I-Mip-1α from the CCR1 receptor.
In vitro Competitive Affinity Binding Assay
• 1. Screen Ready™ Targets: cloned human CCR1 Chemokine receptor, expressed in CHO cells, coated on 96-well FlashPlate® (Perkin Elmer Cat #6120525) • 2. Ligand: ^125I-MIP-1α from Perkin Elmer (specific activity is 2200 Ci/mmol) was reconstituted to 25 μCi/L in H2O. • 3. Assay buffer: 50 mM HEPES, 1 mM CaCl2, 5 mM MgCl2, 0.2% BSA, pH 7.4. • 4. MIP-1α (Peprotech EC Ltd Cat # 300-08) • 5. The compounds of the invention were dissolved in DMSO. A serial dilution was made and ten concentrations of each compound were screened to generate a dose curve from which the IC50 value was determined. Assay Procedure:
Membranes coated on the FlashPlate® were incubated with ^125I-MIP-1α in the presence and absence of different concentrations of compounds at ambient temperature for 1 hour. The radioactivity in each well was determined in a microplate scintillation counter, The non-specific binding was defined by binding in the presence of 1250-fold unlabeled MIP-1α. The assay was performed according to the manufacturer's instruction of Screen Ready™ Targets.

[2] = In vivo bioavailability in the mouse (cassette dosing, i.v. or oral); conditions: female mice (SJL/N Tac), nominal dose 1 mg/kg/compound; for half-life / clearance: mouse; for half-life: plasma half-life; for clearance: plasma; for F: oral bioavailability, F=(AUCinf,po/AUCinf,iv)·(Doseiv/Dosepo)
Protocol: Female mice (SJL/N Tac) were given a single intravenous or oral dose of a mixture of 5 or 6 compounds per cassette (nominal dose: 1 mg/kg/compound) in a solution containing 0.5% N,N′-dimethylacetamide (DMA) and 15% sulfobutyl ether β-cyclodextrin (Captisol®). Blood samples were taken from one mouse per time point and dose group until 24 hour after respective administration. The dose formulations and plasma concentrations of each compound were determined by LC-MS/MS. The pharmacokinetic parameters were determined by non-compartmental analysis using WinNonlin Professional (version 4.0.1). The elimination rate constant, λ, was estimated by linear regression analysis of the terminal slope of the logarithmic plasma concentration-time curve. The area under the plasma concentration-time curve, AUC0-t, was calculated by using the linear/logarithmic trapezoidal rule. The AUCinf was calculated with the residual area estimated as Cz/λ. The calculated plasma concentration at the last time point, Cz, was obtained from the regression equation. The oral bioavailability (F) was calculated as: Foral=(AUCinf,po/AUCinf,iv)·Doseiv/Dosepo). Pharmacodynamic Assays

Row | IC50 (CCR1 receptor) [nM] | IC50 [1] [nM] | half-life [2] [h] | clearance [2] [mL/min/kg] | F [2] [%] | Structure (SMILES)
1 | 23 | 33 | – | – | – | C[C@@H]1CN(C(=O)/C=C/c2ccc([N+](=O)[O-])cc2)[C@@H](C)CN1Cc1ccc(F)cc1 (racemic) [Compound 5.5, (E)-(trans)-1-[4-(4-Fluoro-benzyl)-2,5-dimethyl-piperazine-1-yl]-3-(4-nitro-phenyl)-prop-2-en-1-one]
2 | 110 | 565 | – | – | – | COc1cc(/C=C/C(=O)N2CCN(Cc3ccc(F)cc3)CC2)cc(OC)c1OC [Compound A, 1-[4-(4-Fluoro-benzyl)-piperazine-1-yl]-3-(3,4,5-trimethoxy-phenyl)-prop-2-en-1-one, reference compound]
3 | 416 | > 1000 | – | – | – | C[C@@H]1CN(Cc2ccc(F)cc2)C[C@H](C)N1C(=O)/C=C/c1ccc(Cl)cc1 [F, reference compound]
4 | 910 | – | – | – | – | C[C@H]1CN(C(=O)/C=C/c2ccc(Cl)cc2)[C@@H](C)CN1Cc1ccc(F)cc1 (racemic) [Compound 9.1, (E)-(cis)-3-(4-Chloro-phenyl)-1-[4-(4-fluoro-benzyl)-2,5-dimethyl-piperazine-1-yl]-prop-2-en-1-one, reference compound]
5 | 6 | 39 | – | – | – | C[C@@H]1CN(C(=O)/C=C/c2ccc(Cl)c([N+](=O)[O-])c2)[C@@H](C)CN1Cc1ccc(Cl)cc1 (racemic) [Compound 5.2, (E)-(trans)-3-(4-Chloro-3-nitro-phenyl)-1-[4-(4-chloro-benzyl)-2,5-dimethyl-piperazine-1-yl]-prop-2-en-1-one]
6 | 4 | 21 | – | – | – | C[C@@H]1CN(C(=O)/C=C/c2ccc(Cl)c([N+](=O)[O-])c2)[C@@H](C)CN1Cc1ccc(F)cc1 (racemic) [Compound 6.2, (E)-(trans)-3-(4-Chloro-3-nitro-phenyl)-1-[4-(4-fluoro-benzyl)-2,5-dimethyl-piperazne-1-yl]-prop-2-en-1-one]
7 | 12 | 43 | 2.3 | 58.3 | 29 | C[C@@H]1CN(C(=O)/C=C/c2ccc3nonc3c2)[C@@H](C)CN1Cc1ccc(F)cc1 (racemic) [Compound 5.13, (E)-(trans)-3-Benzo[2,1,3]oxadiazol-5-yl-1-[4-(4-fluoro-benzyl)-2,5-dimethyl-piperazine-1-yl]-prop-2-en-1-one]
8 | 18 | – | – | – | – | C[C@@H]1CN(C(=O)/C=C/c2ccc(Cl)cc2Cl)[C@@H](C)CN1Cc1ccc(F)cc1 (racemic) [Compound 5.6, (E)-(trans)-3-(2,4-Dichloro-phenyl)-]-[4-(4-fluoro-benzyl)-2,5-dimethyl-piperazine-1-yl]-prop-2-en-1-one hydrochloride]
9 | 8 | 17 | – | – | – | COc1cc(/C=C/C(=O)N2C[C@@H](C)N(Cc3ccc(F)cc3)C[C@@H]2C)cc(OC)c1OC (racemic) [Compound 5.19, (E)-(trans)-1-[4-(4-Fluoro-benzyl)-2,5-dimethyl-piperazine-1-yl]-3-(3,4,5-trimethoxy-phenyl)-prop-2-en-1-one]
10 | 120 | – | – | – | – | O=C(/C=C/c1ccc(Cl)cc1Cl)N1CCN(Cc2ccc(Cl)cc2)CC1 [Compound C, 1-(4-chlorobenzyl)-4-(2,4-dichlorocinnamoyl)-piperazine, reference compound]
11 | 9 | 14 | 5.3 | 80 | 62 | C[C@@H]1CN(C(=O)/C=C/c2ccc(Cl)cc2)[C@@H](C)CN1Cc1ccc(F)cc1 (racemic) [Compound 6.1, (E)-(trans)-3-(4-Chloro-phenyl)-1-[4-(4-fluoro-benzyl)-2,5-dimethyl-piperazine-1-yl]-prop-2-en-1-one]
12 | 207 | > 1000 | – | – | – | C[C@@H]1CN(C(=O)/C=C\c2ccc(Cl)cc2)[C@@H](C)CN1Cc1ccc(F)cc1 (racemic) [Compound 8.1, (Z)-(trans)-3-(4-Chloro-phenyl)-1-[4-(4-fluoro-benzyl)-2,5-dimethyl-piperazine-1-yl]-prop-2-en-1-one, reference compound]
13 | 7 | – | – | – | – | C[C@@H]1CN(C(=O)/C=C/c2cc(Cl)c3nsnc3c2)[C@@H](C)CN1Cc1ccc(F)cc1 (racemic) [Compound 5.46, (E)-(trans)-3-(4-Chloro-benzo[2,1,3]thiadiazol-6-yl)-1-[4-(4-fluorobenzyl)-2,5-dimethyl-piperazine-1-yl]-prop-2-en-1-one]

Row | Structure (SMILES) | IC50 (CCR1 receptor) [nM] | IC50 [1] [nM] | half-life [2] [h] | clearance [2] [mL/min/kg] | F [2] [%]
14 | O=C(/C=C/c1ccc(Cl)cc1)N1CCN(Cc2ccc(F)cc2)CC1 [B, 3-(4-chloro-phenyl)-1-[4-(4-fluoro-benzyl)-piperazine-1-yl]-prop-2-en-1-one, reference compound] | 63 | 235 | – | – | –
15 | O=C(/C=C\c1ccc(Cl)cc1)N1CCN(Cc2ccc(F)cc2)CC1 [Compound 8.2, (Z)-3-(4-Chloro-phenyl)-1-[4-(4-fluoro-benzyl)-piperazine-1-yl]-prop-2-en-1-one, reference compound] | > 1000 | > 1000 | – | – | –
